Measurements: US11513109B2, “Biological toxicity test method for evaluating the ecological safety of advanced oxidation processes” (priority 2018, dated 2022)

Tested on: Koi (Cyprinus carpio haematopterus)
Assay: Koi exposure toxicity test: liver homogenate antioxidative enzyme activity (SOD, CAT, GPx)
Assay type: in vivo
Conditions: experimental group 1 vs blank group
Protocol: Still further, four groups of identical experimental pools are established in S2. Each group of experimental pools is provided with 3 parallel groups. The size of each experimental pool is unified to 30 L. The water temperature of the experimental pool is 18° C. to 22° C. Each experimental pool is provided with an aerator. The first group of the experimental pools is the waste water control group, the second group is the waste water group, the third group is the tap water control group, and the fourth group is the tap water blank group. The four groups of experimental pools have same conditions except the addition of different water quality. 25 L of raw waste water, experimental waste water, control tap water, and blank tap water are sequentially added to the experimental pool of the waste water control group, the waste water experimental group, the tap water control group, and the […].
Still further, 20 selected Koi are put into each experimental pool in S3 for exposure to poison. The Koi used in the test are those domesticated with tap water and not poisoned by the contaminants. The duration of exposure is 96 h-110 h. During the period of exposure, half water is changed every day with water of same quality to maintain the water quality in a stable condition.
Further, the method in S4 is specifically: the Koi after exposure to poison in each group is dissected and liver is extracted, chopped, and formulated into a homogenate with the liver tissue and physiological saline according to weight (g): volume (mL)=1:9 and the activity of antioxidative enzymes in the homogenate is determined.
Still further, the antioxidative enzyme determined in S4 comprises superoxide dismutase, catalase, and glutathione peroxidase.
Still further, the biological indicators such as the determined enzyme activity described in S4 are determined using a kit, and 5 parallel group assays are set for each sample group.
S1: the waste water to be determined was collected (prepared), […]. […]

OO [H2O2]
produces oxidative stress: oxidative stress on the koi (SOD higher, GPx lower than blank group, not significant) (Example 1, oxidant in UV/H2O2) | oxidative stress on the Koi (SOD higher, GPx lower than blank group, not significant) (Example 3, oxidant in the ozone combined oxidation process) | oxidative stress on the Koi (SOD higher, GPx lower than blank group, not significant) (Example 4, oxidant in the wet oxidation process)
